Results: US10106501B2, “Nuclear receptor modulators” (AbbVie Inc., priority 2015, dated 2018)

molecular target: T1, chimeric human RORγ-Gal4 receptor (Homo sapiens, UniProt P51449); experiment: transient transactivation assay (RORγ-Gal4 luciferase reporter); type: cell-based; details: Cos-7 cells transfected with RORγ-Gal4 and 5Gal4 pGL3 TK Luc reporter; overnight incubation; T0901317 at 10^-5 M as reference; read-out: IC50
T1 sequence (P51449 269-508 limits assumed): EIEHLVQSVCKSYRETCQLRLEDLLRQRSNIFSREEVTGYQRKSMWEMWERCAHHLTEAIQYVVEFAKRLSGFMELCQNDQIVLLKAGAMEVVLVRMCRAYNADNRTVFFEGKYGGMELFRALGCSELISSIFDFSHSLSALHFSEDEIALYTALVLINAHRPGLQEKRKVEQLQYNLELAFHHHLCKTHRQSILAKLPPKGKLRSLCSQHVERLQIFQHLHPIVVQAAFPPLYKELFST

SMILES | IC50
Cc1cn(Cc2c(Cl)ccc(C(=O)N3CC[C@@H](C(=O)O)[C@@H](C)C3)c2Cl)c2c(C)cc(OC(F)(F)F)cc12 [EG-2] | < 100 nM
Cc1ccc(C(=O)N2CCOCC2)c(C)c1C(=O)c1cc2c(C)cc(C(F)(F)F)cc2n1C [Example G1, (2,6-dimethyl-3-(morpholine-4-carbonyl)phenyl)(1,4-dimethyl-6-(trifluoromethyl)-1H-indol-2-yl)methanone] | 100 to 500 nM
Cc1cn(Cc2c(Cl)ccc(C(=O)N3CCC(C(=O)O)CC3)c2Cl)c2c(C)cc(C(F)(F)F)cc12 [DH, 1-(2,4-dichloro-3-((3,7-dimethyl-5-(trifluoromethyl)-1H-indol-1-yl)methyl)benzoyl)piperidine-4-carboxylic acid] | < 100 nM
Cc1cc(C#N)cc2c1cc(Cc1c(Cl)ccc(C(=O)N3CCC(N(C)C)CC3)c1Cl)n2C [AA-6] | 100 to 500 nM
Cc1cc(C(F)(F)F)cc2c1cc(Cc1c(Cl)ccc(C(=O)N3CC4(CC(CC(=O)O)C4)C3)c1Cl)n2C [Example B-17] | < 100 nM
Cc1cc(C(F)(F)F)cc2c1cc(C(=O)c1c(Cl)ccc(C(=O)N3CC[C@H](C(=O)O)[C@H](C)C3)c1Cl)n2C [AQ-4] | < 100 nM
Cc1cn(C(=O)c2c(Cl)ncc(C(=O)N3CCC(CC(=O)O)CC3)c2Cl)c2c(C)cc(C(F)(F)F)cc12 [EQ, 2-(1-(4,6-dichloro-5-(3,7-dimethyl-5-(trifluoromethyl)-1H-indole-1-carbonyl)nicotinoyl)piperidin-4-yl)acetic acid] | < 100 nM
Cc1cc(C(F)(F)F)cc2c1cc(Cc1c(Cl)ccc(C(=O)N3CCC(O)C(C(=O)O)C3)c1Cl)n2C (centres unmarked) [Example B-10] | 1000 to 10000 nM
Cc1cc(C(F)(F)F)cc2c1cc(Cc1c(Cl)ncc(C(=O)N3CCC(CC(=O)O)CC3)c1Cl)n2C [Example B-22] | < 100 nM
CC(=O)N1CCN(C(=O)c2ccc(Cl)c(Cc3cc4ccc(C(F)(F)F)cc4n3C)c2Cl)CC1 [Example L-3] | 100 to 500 nM
Cc1cc(C(F)(F)F)cc2ccn(Cc3c(Cl)ccc(C(=O)N4CCC(CC(=O)O)CC4)c3Cl)c12 [J, 2-(1-(2,4-dichloro-3-((7-methyl-5-(trifluoromethyl)-1H-indol-1-yl)methyl)benzoyl)piperidin-4-yl)acetic acid] | < 100 nM
C[C@H]1CN(C(=O)c2ccc(Cl)c(Cc3cc4c(F)cc(C(F)(F)F)cc4n3C)c2Cl)CC[C@H]1C(=O)O [FE-4] | < 100 nM
Cc1cc(C(N)=O)cc2c1nc(C(=O)c1c(Cl)ccc(C(=O)N3CCOCC3)c1Cl)n2C [Example BT, 2-(2,6-dichloro-3-(morpholine-4-carbonyl)benzoyl)-1,4-dimethyl-1H-benzo[d]imidazole-6-carboxamide] | 1000 to 10000 nM
Cc1cc(C(F)(F)F)cc2c1cc(Cc1c(Cl)cn(CCC(=O)O)c(=O)c1Cl)n2C [Example BI, 3-(3,5-dichloro-4-((1,4-dimethyl-6-(trifluoromethyl)-1H-indol-2-yl)methyl)-2-oxopyridin-1(2H)-yl)propanoic acid] | 1000 to 10000 nM
Cc1cc(OC(F)F)cc2c1cc(Cc1c(Cl)ccc(C(=O)N3CCC(C(=O)O)C(C)C3)c1Cl)n2C (centres unmarked) [FF-1] | < 100 nM
Cc1cc(C(F)(F)F)cn2c(C)c(Cc3c(Cl)ccc(C(=O)N4CCC(C5COC5)CC4)c3Cl)nc12 [CT-8] | < 100 nM
Cc1cc(C#N)cc2c1cc(C(=O)c1c(Cl)ccc(C(=O)N3CC(O)C3)c1Cl)n2C [AN-1] | 500 to 1000 nM
Cc1cc(C(F)(F)F)cc2c1cc(C(=O)c1c(Cl)ccc(C(=O)N3CC[C@@H](C(=O)O)[C@@H](C)C3)c1Cl)n2C [AQ-5] | < 100 nM
Cc1cn(C(=O)c2c(Cl)ccc(C(=O)N3CCC(CC(=O)O)CC3)c2Cl)c2c(C)cc(C(F)(F)F)cc12 [DJ, 2-(1-(2,4-dichloro-3-(3,7-dimethyl-5-(trifluoromethyl)-1H-indole-1-carbonyl)benzoyl)piperidin-4-yl)acetic acid] | < 100 nM
Cc1cc(C(F)(F)F)cc2c1nc(Cc1c(Cl)ccc(C(=O)N3CCC(CC(=O)O)CC3)c1Cl)n2C [Example BU, 2-(1-(2,4-dichloro-3-((1,4-dimethyl-6-(trifluoromethyl)-1H-benzo[d]imidazol-2-yl)methyl)benzoyl)piperidin-4-yl)acetic acid] | < 100 nM
C[C@@H]1CN(C(=O)c2ccc(Cl)c(Cc3cc4c(F)cc(C(F)(F)F)cc4n3C)c2Cl)CC[C@@H]1C(=O)O [FE-3] | < 100 nM
Cc1cc(C(F)(F)F)cc2c1nc(Cc1c(Cl)ccc(C(=O)N3CCC(C(C)(C)CO)CC3)c1Cl)n2C [BJ-10] | < 100 nM
Cc1cc(C(F)(F)F)cc2c1nc(Cc1c(Cl)ccc(CN3CCC(C(C)O)CC3)c1Cl)n2C (centres unmarked) [BW-13] | 100 to 500 nM

SMILES | IC50
Cc1cn(Cc2c(Cl)ncc(C(=O)N3CCC(CC(=O)O)CC3)c2Cl)c2c(C)cc(C(F)(F)F)cc12 [ER, 2-(1-(4,6-dichloro-5-((3,7-dimethyl-5-(trifluoromethyl)-1H-indol-1-yl)methyl)nicotinoyl)piperidin-4-yl)acetic acid] | < 100 nM
Cc1cc(C(F)(F)F)cc2c1cc(Cc1c(Cl)ccc(C(=O)N3CCC(OCC(=O)O)CC3)c1Cl)n2C [Example B-2] | < 100 nM
Cc1cc(C(F)(F)F)cc2c1cc(C(=O)c1c(Cl)ccc(C(=O)N3C[C@@H]4[C@H](C3)[C@H]4C(=O)O)c1Cl)n2C [AQ-2] | 100 to 500 nM
Cc1cc(C(F)(F)F)cc2c1nc(Cc1c(Cl)ccc(C(=O)N3CCN(C4COC4)CC3)c1Cl)n2C [BJ-38] | 100 to 500 nM
Cc1cc(C(F)(F)F)cc2c1nc(Cc1c(Cl)ccc(CN3CCC(C4COC4)CC3)c1Cl)n2C [BW-1] | 100 to 500 nM
Cc1cc(C#N)cc2c1cc(Cc1c(Cl)cnc(C(=O)N3CCC(C4COC4)CC3)c1Cl)n2C [BF-1] | < 100 nM
Cc1cc(C(F)(F)F)cc2c1cc(Cc1c(Cl)ccc(C(=O)N3CCN(C4CC(C(=O)O)C4)CC3)c1Cl)n2C (centres unmarked) [Example S, 3-(4-(2,4-dichloro-3-((1,4-dimethyl-6-(trifluoromethyl)-1H-indol-2-yl)methyl)benzoyl)piperazin-1-yl)cyclobutanecarboxylic acid] | < 100 nM
Cc1cc(C(F)(F)F)cc2c1nc(Cc1c(Cl)ccc(CN3CCC(N(C)C)CC3)c1Cl)n2C [BW-16] | 1000 to 10000 nM
Cc1cc(C(F)(F)F)cc2c1nc(Cc1c(Cl)ccc(CN3CCC(C(C)(C)CO)CC3)c1Cl)n2C [BW-6] | 100 to 500 nM
Cc1cc(C#N)nn2c(C)c(Cc3c(Cl)ccc(C(=O)N4CCOCC4)c3Cl)nc12 [DA, 2-(2,6-dichloro-3-(morpholine-4-carbonyl)benzyl)-3,8-dimethylimidazo[1,2-b]pyridazine-6-carbonitrile] | 1000 to 10000 nM
Cc1cc(C(F)(F)F)nc2c1nc(Cc1c(Cl)ccc(C(=O)N3CCOCC3)c1Cl)n2C [DC, (2,4-dichloro-3-((3,7-dimethyl-5-(trifluoromethyl)-3H-imidazo[4,5-b]pyridin-2-yl)methyl)phenyl)(morpholino)methanone] | 1000 to 10000 nM
Cc1cc(C#N)cc2c1cc(Cc1c(Cl)ccc(C(=O)N3CCCC(O)C3)c1Cl)n2C (centres unmarked) [AA-5] | 100 to 500 nM
Cc1cc(C(F)(F)F)nc2c1cc(Cc1c(Cl)ncc(C(=O)N3CCC(S(C)(=O)=O)CC3)c1Cl)n2C [Example GG, (4,6-dichloro-5-((1,4-dimethyl-6-(trifluoromethyl)-1H-pyrrolo[2,3-b]pyridin-2-yl)methyl)pyridin-3-yl)(4-(methylsulfonyl)piperidin-1-yl)methanone] | < 100 nM
Cc1cc(C(F)(F)F)cn2c(C)c(Cc3c(Cl)ccc(C(=O)N4CCC(CCO)CC4)c3Cl)nc12 [CT-2] | 100 to 500 nM
COCCC1CCN(C(=O)c2ccc(Cl)c(Cc3nc4c(C)cc(C#N)cc4n3C)c2Cl)CC1 [BN-3] | 100 to 500 nM
Cc1cc(C(F)(F)F)cc2c1cc(Cc1c(Cl)ncc(C(=O)N3CCOCC3)c1Cl)n2C [Example BH, (4,6-dichloro-5-((1,4-dimethyl-6-(trifluoromethyl)-1H-indol-2-yl)methyl)pyridin-3-yl)(morpholino)methanone] | < 100 nM
Cc1cn(C(=O)c2c(Cl)ccc(C(=O)N3CCC(CC(=O)O)CC3)c2Cl)c2c(C)cc(OC(F)(F)F)cc12 [EH, 2-[1-[2,4-dichloro-3-[3,7-dimethyl-5-(trifluoromethoxy)indole-1-carbonyl]benzoyl]-4-piperidyl]acetic acid] | < 100 nM
Cc1cc(C(F)(F)F)cc2c1nc(Cc1c(Cl)ccc(CN3CCOCC3)c1Cl)n2C [BW-10] | 100 to 500 nM
Cc1cc(C#N)cc2c1cc(Cc1c(Cl)ccc(C(=O)NC3COC3)c1Cl)n2C [AA-24] | 100 to 500 nM
O=C(O)CC1CCN(C(=O)c2ccc(Cl)c(Cn3ccc4c(C(F)(F)F)cccc43)c2Cl)CC1 [EI-7] | < 100 nM
Cc1cn(C(=O)c2c(Cl)ccc(C(=O)N3CC[C@@H](C(=O)O)[C@@H](C)C3)c2Cl)c2c(C)cc(C(F)(F)F)cc12 [DJ1-3] | < 100 nM
Cc1c(Br)ccc2c1nc(Cc1c(Cl)ccc(C(=O)N3CCOCC3)c1Cl)n2C [Example CB, (3-((5-bromo-1,4-dimethyl-1H-benzo[d]imidazol-2-yl)methyl)-2,4-dichlorophenyl)(morpholino)methanone] | 100 to 500 nM
COCCN1CCN(C(=O)c2ccc(Cl)c(Cc3cc4c(C)cc(C(F)(F)F)cc4n3C)c2Cl)CC1 [A, (2,4-dichloro-3-((1,4-dimethyl-6-(trifluoromethyl)-1H-indol-2-yl)methyl)phenyl)(4-(2-methoxyethyl)piperazin-1-yl)methanone] | < 100 nM

same assay, conditions: read-out: IC50

SMILES | IC50
Cc1cc(C(F)(F)F)nc2c1cc(C(=O)c1c(Cl)ccc(C(=O)N3CC[C@@H](CC(=O)O)[C@@H](C)C3)c1Cl)n2C.Cc1cc(C(F)(F)F)nc2c1cc(C(=O)c1c(Cl)ccc(C(=O)N3CC[C@@H](CC(=O)O)[C@H](C)C3)c1Cl)n2C.Cc1cc(C(F)(F)F)nc2c1cc(C(=O)c1c(Cl)ccc(C(=O)N3CC[C@H](CC(=O)O)[C@@H](C)C3)c1Cl)n2C.Cc1cc(C(F)(F)F)nc2c1cc(C(=O)c1c(Cl)ccc(C(=O)N3CC[C@H](CC(=O)O)[C@H](C)C3)c1Cl)n2C [Example GA] | < 100 nM
